Where two headings read alike, the source gives them in different places.
Assays:
Format in all cases: in vivo
[1] = tested on: barnyardgrass (Echinochloa crus-galli); experiment: Test A pre/postemergence; details: Echinochloa crus-galli, 240 h, read-out: Plant response rating, Barnyardgrass; for pest or weed control at 125 g/ha: 125 g ai/ha; for pest or weed control at 500 g/ha: 500 g ai/ha
Outline: (§1)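 After planting in loam and sand, species received test chemical as preemergence soil spray; postemergence spray went on 2–10 cm plants at 1–2 leaves at the same time. Evaluation: visual injury, ~10 d, 0 no effect to 100 complete control.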

[2] = tested on: crabgrass (Digitaria sanguinalis); experiment: Test A pre/postemergence; details: Digitaria sanguinalis, 240 h, read-out: Plant response rating, Crabgrass; for pest or weed control at 125 g/ha: 125 g ai/ha; for pest or weed control at 500 g/ha: 500 g ai/ha
Outline: as §1

[3] = tested on: giant foxtail (Setaria faberi); experiment: Test A pre/postemergence; details: Setaria faberi, 240 h, read-out: Plant response rating, Foxtail, Giant; for pest or weed control at 125 g/ha: 125 g ai/ha; for pest or weed control at 500 g/ha: 500 g ai/ha
Outline: as §1

[4] = tested on: morningglory (Ipomoea spp.); experiment: Test A pre/postemergence; details: Ipomoea, 240 h, read-out: Plant response rating, Morningglory; for pest or weed control at 125 g/ha: 125 g ai/ha; for pest or weed control at 500 g/ha: 500 g ai/ha
Outline: as §1

[5] = tested on: redroot pigweed (Amaranthus retroflexus); experiment: Test A pre/postemergence; details: Amaranthus retroflexus, 240 h, read-out: Plant response rating, Pigweed; for pest or weed control at 125 g/ha: 125 g ai/ha; for pest or weed control at 500 g/ha: 500 g ai/ha
Outline: as §1

[6] = tested on: velvetleaf (Abutilon theophrasti); experiment: Test A pre/postemergence; details: Abutilon theophrasti, 240 h, read-out: Plant response rating, Velvetleaf; for pest or weed control at 125 g/ha: 125 g ai/ha; for pest or weed control at 500 g/ha: 500 g ai/ha
Outline: as §1

[7] = tested on: bermudagrass (Cynodon dactylon); experiment: Test C pre/postemergence; details: Cynodon dactylon; for pest or weed control at 31 g/ha: 31 g ai/ha; for pest or weed control at 62 g/ha: 62 g ai/ha; for pest or weed control at 125 g/ha: 125 g ai/ha
Outline: (§2)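 Percent control is a visual rating (0 none, 100 complete) taken against untreated plants after 12 to 14 days of greenhouse growth. Applications were made preemergence to seeded pots and postemergence to plants at the 1- to 4-leaf stage, in a non-phytotoxic surfactant-containing solvent.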

[8] = tested on: johnsongrass (Sorghum halepense); experiment: Test C pre/postemergence; details: Sorghum halepense; for pest or weed control at 31 g/ha: 31 g ai/ha; for pest or weed control at 62 g/ha: 62 g ai/ha; for pest or weed control at 125 g/ha: 125 g ai/ha
Outline: as §2

[9] = tested on: lambsquarters (Chenopodium album); experiment: Test C pre/postemergence; details: Chenopodium album; for pest or weed control at 31 g/ha: 31 g ai/ha; for pest or weed control at 62 g/ha: 62 g ai/ha; for pest or weed control at 125 g/ha: 125 g ai/ha
Outline: as §2

[10] = tested on: soybean (Glycine max); experiment: Test C pre/postemergence; details: Glycine max; for plant injury at 31 g/ha: 31 g ai/ha; for plant injury at 62 g/ha: 62 g ai/ha
Outline: as §2

[11] = tested on: chickweed (Stellaria media); experiment: Test C postemergence; details: Stellaria media, post-emergence
Outline: as §2

[12] = post-emergence, Postemergence, 0 to 100 scale (0 no effect, 100 complete control)
[13] = pre-emergence, Preemergence, 0 to 100 scale where 0 is no effect and 100 is complete control, approximately ten days
[14] = post-emergence, Postemergence, scale 0 to 100 (0 no effect, 100 complete control), read-out: Bermudagrass plant response rating
[15] = pre-emergence, Preemergence, scale 0 to 100, 0 no effect, 100 complete control, read-out: Plant response rating, Bermudagrass
[16] = post-emergence, Postemergence, read-out: Plant response rating (scale of 0 to 100), Johnsongrass
[17] = pre-emergence, Preemergence, scale 0 to 100, 0 no effect, 100 complete control, read-out: Plant response rating, Johnsongrass
[18] = post-emergence, Postemergence, read-out: Plant response rating (scale of 0 to 100), Lambsquarters
[19] = pre-emergence, Preemergence, scale 0 to 100, 0 no effect, 100 complete control, read-out: Plant response rating, Lambsquarters
[20] = post-emergence, Postemergence, read-out: Plant response rating (scale of 0 to 100), Soybean
[21] = pre-emergence, Preemergence, scale 0 to 100, 0 no effect, 100 complete control, read-out: Plant response rating, Soybean

Work on `Nc1nc(C2CC2)nc(C(=O)OCc2ccccc2)c1Cl` [Compound 78, phenylmethyl 6-amino-5-chloro-2-cyclopropyl-4-pyrimidinecarboxylate] yielded a pest or weed control at 125 g/ha [1, 12] of 80%, a pest or weed control at 500 g/ha [1, 12] of 90% and a pest or weed control at 125 g/ha [1, 13] of 45%. For the same molecule, the pest or weed control at 500 g/ha [1, 13] was 75%, the pest or weed control at 125 g/ha [2, 12] was 70% and the pest or weed control at 500 g/ha [2, 12] was 80%. It also gave a pest or weed control at 125 g/ha [2, 13] of 55%, a pest or weed control at 500 g/ha [2, 13] of 70% and a pest or weed control at 125 g/ha [3, 12] of 70%. It also gave a pest or weed control at 500 g/ha [3, 12] of 80%, a pest or weed control at 125 g/ha [3, 13] of 10% and a pest or weed control at 500 g/ha [3, 13] of 65%. The pest or weed control at 125 g/ha [4, 12] was 80%, the pest or weed control at 500 g/ha [4, 12] was 90% and the pest or weed control at 125 g/ha [4, 13] was 90%. The pest or weed control at 500 g/ha [4, 13] was 100%, the pest or weed control at 125 g/ha [5, 12] was 85% and the pest or weed control at 500 g/ha [5, 12] was 95%. The pest or weed control at 125 g/ha [5, 13] was 75%, the pest or weed control at 500 g/ha [5, 13] was 90% and the pest or weed control at 125 g/ha [6, 12] was 75%. It also gave a pest or weed control at 500 g/ha [6, 12] of 90%, a pest or weed control at 125 g/ha [6, 13] of 80% and a pest or weed control at 500 g/ha [6, 13] of 85%. For the same molecule, the pest or weed control at 31 g/ha ([7]; post-emergence, Postemergence, read-out: Plant response rating (scale of 0 to 100), Bermudagrass) was 60%, the pest or weed control at 62 g/ha [7, 14] was 60% and the pest or weed control at 125 g/ha [7, 14] was 60%. It also gave a pest or weed control at 250 g/ha ([7]; post-emergence, Postemergence, 250 g ai/ha, scale 0 to 100, read-out: Plant response rating, Bermudagrass) of 65%, a pest or weed control at 16 g/ha ([7]; pre-emergence, Preemergence, 16 g ai/ha, scale 0 to 100, 0 no effect, 100 complete control, read-out: Plant response rating, Bermudagrass) of 0% and a pest or weed control at 31 g/ha [7, 15] of 0%. The pest or weed control at 62 g/ha [7, 15] was 0%, the pest or weed control at 125 g/ha ([7]; pre-emergence, Preemergence, scale 0 to 100, read-out: Plant response rating, Bermudagrass) was 20% and the pest or weed control at 31 g/ha [8, 16] was 10%. For the same molecule, the pest or weed control at 62 g/ha [8, 16] was 10%, the pest or weed control at 125 g/ha ([8]; post-emergence, Postemergence, scale 0 to 100 (0 no effect, 100 complete control), read-out: Johnsongrass plant response rating) was 20% and the pest or weed control at 250 g/ha ([8]; post-emergence, Postemergence, 250 g ai/ha, scale 0 to 100, read-out: Plant response rating, Johnsongrass) was 40%. For the same molecule, the pest or weed control at 16 g/ha ([8]; pre-emergence, Preemergence, 16 g ai/ha, scale 0 to 100, 0 no effect, 100 complete control, read-out: Plant response rating, Johnsongrass) was 0%, the pest or weed control at 31 g/ha [8, 17] was 10% and the pest or weed control at 62 g/ha [8, 17] was 20%. It also gave a pest or weed control at 125 g/ha ([8]; pre-emergence, Preemergence, scale 0 to 100, read-out: Plant response rating, Johnsongrass) of 50%, a pest or weed control at 31 g/ha [9, 18] of 90% and a pest or weed control at 62 g/ha [9, 18] of 95%. The pest or weed control at 125 g/ha ([9]; post-emergence, Postemergence, scale 0 to 100 (0 no effect, 100 complete control), read-out: Lambsquarters plant response rating) was 95%, the pest or weed control at 250 g/ha ([9]; post-emergence, Postemergence, 250 g ai/ha, scale 0 to 100, read-out: Plant response rating, Lambsquarters) was 100% and the pest or weed control at 16 g/ha ([9]; pre-emergence, Preemergence, 16 g ai/ha, scale 0 to 100, 0 no effect, 100 complete control, read-out: Plant response rating, Lambsquarters) was 0%. The pest or weed control at 31 g/ha [9, 19] was 70%, the pest or weed control at 62 g/ha [9, 19] was 80% and the pest or weed control at 125 g/ha ([9]; pre-emergence, Preemergence, scale 0 to 100, read-out: Plant response rating, Lambsquarters) was 80%. The plant injury at 31 g/ha [10, 20] was 90%, the plant injury at 62 g/ha [10, 20] was 100% and the plant injury at 125 g/ha ([10]; post-emergence, Postemergence, 125 g ai/ha, scale 0 to 100 (0 no effect, 100 complete control), read-out: Soybean plant response rating) was 100%. The plant injury at 250 g/ha ([10]; post-emergence, Postemergence, 250 g ai/ha, scale 0 to 100, read-out: Plant response rating, Soybean) was 100%, the plant injury at 16 g/ha ([10]; pre-emergence, Preemergence, 16 g ai/ha, scale 0 to 100, 0 no effect, 100 complete control, read-out: Plant response rating, Soybean) was 30% and the plant injury at 31 g/ha [10, 21] was 70%. It also gave a plant injury at 62 g/ha [10, 21] of 80%, a pest or weed control at 31 g/ha ([11]; 31 g ai/ha, read-out: Plant response rating (scale of 0 to 100), Chickweed) of 0% and a pest or weed control at 62 g/ha ([11]; 62 g ai/ha, read-out: Plant response rating (scale of 0 to 100), Chickweed) of 0%. The pest or weed control at 250 g/ha ([11]; 250 g ai/ha, scale 0 to 100, read-out: Plant response rating, Chickweed) was 70%.
